Patent US6413539B1, “Hydrogel-forming, self-solvating absorbable polyester copolymers, and methods for use thereof” (Poly-Med, Inc., priority 1996, dated 2002)

assay: Binding of acidic organic drugs to anion-exchanger; assay type: physicochemical; conditions: sodium salt of drug; anion-exchanger of Example XIII
Description: The preparation of the anion-exchanger is achieved in two steps. […] In the second step, the practically non-ionic microparticles are incubated in hot dilute solution (^˜80° C.) of hexanediamine of known concentration in dioxane under argon for 2-4 hours. The concentration of the diamine in dioxane is determined by acidimetry. When the reaction practically ceases to take place, the aminated microparticles are separated by filtration, rinsed with dioxane, and dried under reduced pressure. The binding capacity of the anion-exchanger (aminated particles) is determined by (1) elemental analysis for nitrogen and (2) extent of binding to naproxin by measuring the extent of drug removed from a dilute solution using HPLC. The latter is confirmed by release of the immobilized naproxin with a dilute sodium hydroxide solution of known concentration.
Typical examples of acidic organic drugs that are available as sodium salt are ganciclovir, naproxin, and ibuprofen. In typical experiments, the aforementioned drugs are bound to the anion-exchanger of Example XIII following a similar scheme to that used in the same example describing the binding of naproxin.

In order of rising “% Drug bound to anion-exchanger” value:
1. Nc1nc(O)c2ncn(COC(CO)CO)c2n1 [Ganciclovir, ganciclovir]  6%
2. CC(C)Cc1ccc(C(C)C(=O)O)cc1 (stereo not drawn) [Ibuprofen, ibuprofen]  8%
3. COc1ccc2cc([C@H](C)C(=O)O)ccc2c1 [Naproxin, naproxin]  11%
